SMILES strings stand for the structures.

What is called Kd is the constant that tells how readily two partners part at equilibrium.

Holding throughout (test): UV-vis difference titration (type I shift, […] nm)
Holding throughout (type): binding

Assay [1] concerns the target T1, TxtE (Streptomyces scabiei, UniProt C9ZDC6, Y89F).
T1 construct: full length, 406 residues, pET-28a, N-terminal His-tag with thrombin site (tag kept), E. coli Rosetta(DE3) pLysS, monomer in solution

Assay [2] deals with T2, TxtE (Streptomyces scabiei, UniProt C9ZDC6, N293L).
T2 construct: full length, 406 residues, pET-28a, N-terminal His-tag with thrombin site (tag kept), E. coli Rosetta(DE3) pLysS, monomer in solution
T2 sequence (C9ZDC6 whole entry N293L): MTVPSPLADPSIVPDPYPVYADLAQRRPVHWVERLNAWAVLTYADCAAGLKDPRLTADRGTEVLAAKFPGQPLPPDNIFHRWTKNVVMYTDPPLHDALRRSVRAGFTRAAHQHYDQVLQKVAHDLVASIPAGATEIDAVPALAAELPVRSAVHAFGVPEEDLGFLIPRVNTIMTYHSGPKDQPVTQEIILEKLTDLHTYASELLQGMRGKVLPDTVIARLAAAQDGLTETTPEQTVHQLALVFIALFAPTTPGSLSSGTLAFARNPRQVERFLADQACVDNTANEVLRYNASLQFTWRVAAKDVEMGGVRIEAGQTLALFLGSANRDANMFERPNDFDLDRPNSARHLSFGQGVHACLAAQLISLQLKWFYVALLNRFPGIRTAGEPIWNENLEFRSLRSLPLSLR

The target of assay [3] is T3, TxtE (Streptomyces scabiei, UniProt C9ZDC6).
T3 construct: full length, 406 residues, pET-28a, N-terminal His-tag with thrombin site (tag kept), E. coli Rosetta(DE3) pLysS, monomer in solution
T3 sequence (C9ZDC6 entry or part of it): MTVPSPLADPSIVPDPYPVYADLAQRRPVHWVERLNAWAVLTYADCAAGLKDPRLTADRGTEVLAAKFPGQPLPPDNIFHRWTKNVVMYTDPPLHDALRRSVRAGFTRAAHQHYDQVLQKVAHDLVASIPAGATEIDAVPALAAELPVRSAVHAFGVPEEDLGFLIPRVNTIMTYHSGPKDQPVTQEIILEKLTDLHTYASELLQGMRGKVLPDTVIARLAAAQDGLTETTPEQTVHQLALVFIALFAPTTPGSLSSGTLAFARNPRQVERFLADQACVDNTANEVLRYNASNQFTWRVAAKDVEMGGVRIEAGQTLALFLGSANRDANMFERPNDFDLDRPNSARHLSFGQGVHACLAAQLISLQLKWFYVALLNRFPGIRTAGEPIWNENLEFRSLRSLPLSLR

T1 sequence (C9ZDC6 whole entry Y89F): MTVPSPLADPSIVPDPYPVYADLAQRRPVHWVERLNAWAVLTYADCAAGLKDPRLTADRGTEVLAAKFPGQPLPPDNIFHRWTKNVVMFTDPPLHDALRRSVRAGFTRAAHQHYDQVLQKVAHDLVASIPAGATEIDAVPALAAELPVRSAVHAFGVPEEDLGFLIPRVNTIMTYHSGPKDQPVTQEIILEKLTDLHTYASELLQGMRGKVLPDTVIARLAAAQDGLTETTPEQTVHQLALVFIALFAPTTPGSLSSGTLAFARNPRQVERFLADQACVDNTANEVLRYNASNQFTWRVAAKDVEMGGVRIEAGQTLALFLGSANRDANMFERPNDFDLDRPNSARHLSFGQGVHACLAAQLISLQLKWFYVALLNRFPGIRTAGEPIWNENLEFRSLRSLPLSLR

As for `N[C@@H](Cc1c[nH]c2ccccc12)C(=O)O` [L-tryptophan], the dissociation constant (Kd) amounted to 121 ± 4.3 µM at TxtE [1], 1700 ± 280 µM at TxtE [2] and 43.6 ± 2.26 µM on TxtE [3].
